This note sets out measurements from paper PMC8305974, “Novel Hybrid Compounds Containing Benzofuroxan and Aminothiazole Scaffolds: Synthesis and Evaluation of Their Anticancer Activity” (International Journal of Molecular Sciences, 2021).

SMILES strings stand for the structures. Where two headings read alike, the source gives them in different places.

One data set can be described thus: in vitro. The note with it: human.
For data set [1], the system named is M-HeLa. Put plainly: Cytotoxicity assay (Cytell Cell Imaging, Cell Viability Bio App). The settings on record: read-out: Cytotoxic effects (IC50) M-HeLa; cancer cell line M-HeLa; tested at 1–100 μM; mean ± SD, three repeats.
Data set [2] has as its system HuTu 80. Described as above. The settings on record: read-out: Cytotoxic effects (IC50) HuTu 80; cancer cell line HuTu 80; tested at 1–100 μM; mean ± SD, three repeats.
Data set [3] deals with PANC-1. The description is as above. The settings on record: read-out: Cytotoxic effects (IC50) PANC-1; cancer cell line PANC-1; tested at 1–100 μM; mean ± SD, three repeats.
Data set [4] concerns M-HeLa. The settings on record: for IC50: human.
Data set [5] has as its system HuTu 80. The settings on record: human.
Data set [6] has as its system PANC-1. The note with it: human.
For another data set, the system named is M-HeLa cells. Put plainly: Cell apoptosis analysis by flow cytometry (annexin V-FITC / propidium iodide). Type of data set: cell-based, human. The settings on record: 24 h. The protocol:
Cell Culture. M-HeLa cells at 1 × 10^6 cells/well in a final volume of 2 mL were seeded into 6-well plates. After 24 h of incubation, various concentrations of Compounds 2f and 3f were added to wells.
Cell Apoptosis Analysis. The cells were harvested at 2000 rpm for 5 min and, then, washed twice with ice-cold PBS, followed by resuspension in binding buffer. Next, the samples were incubated with 5 μL of annexin V-FITC and 5 μL of propidium iodide for 15 min at room temperature in the dark. Finally, the cells were analyzed by flow cytometry (Guava easy Cyte, MERCK, Kenilworth Union County, NJ, USA). The experiments were repeated three times.

The test system of another data set is M-HeLa cell lines. Put plainly: Cell cycle analysis by flow cytometry (propidium iodide). Type of data set: cell-based, human. The note with it: 24 h, control 68.1. The protocol: Cell cycle analysis by quantification of DNA content is a reliable method to investigate which phase cell cycle has been arrested, wherein propidium iodide dye is used which binds in proportion to the amount of DNA present in the cell. […] The results reveal that 3f caused an increase in % of G1 arrest. Compound 3f was on 81.4% and 83.8% at 50 and 100 µM, respectively, which is more than control cells (68.1%) (Figure 9).
The DNA content and cell-cycle distribution after genistein treatment were estimated by flow cytometry. Cell seeding, drug treatment and ethanol fixation were similar to cell proliferation assay. After washing with PBS, genistein and daidzein-treated and -fixed cells were suspended in 150 μL of PBS, then 0.5 mL phosphate-citrate buffer (0.05 M, pH 4.0) was added and the suspension was incubated at room temperature for 5 min to facilitate the extraction of low-molecular-weight DNA. Following centrifugation, the cells were resuspended in 150 μL DNA staining solution (20 μg/mL propidium iodide, 200 μg/mL […], and 0.1% Triton X-100) and incubated in the CO2 incubator (37 °C for 30 min). Cell cycle distribution was determined by fluorescence-activated cell sorting analysis of propidium iodide-stained ethanol-fixed cells using a Guava EasyCyte (Guava easy Cyte, MERCK, Kenilworth Union County, NJ, USA).

Setting [7] is: Chang Liver cells (normal liver cell line).

As to `O=c1[nH]cc(F)c(=O)[nH]1` [5-Fluorouracil, reference compound], the IC50 amounted to 72.4 ± 6.5 µM in the data set “in vitro” (setting [7]), 62 ± 4.9 µM in the data set with M-HeLa [1], 65.2 ± 5.5 µM in the data set with HuTu 80 [2] and 68.3 ± 5.7 µM with PANC-1 [3].

In the case of `Nc1nccs1` [Compound 2a], the IC50 in the data set on M-HeLa [4] is 91 ± 8.3 µM; in the data set with HuTu 80 [5], greater than 100 µM; in the data set on PANC-1 [6], greater than 100 µM; in “in vitro” it was greater than 100 µM.

In the case of `Cc1cnc(N)s1` [Compound 2b], the IC50 in the data set “in vitro” (setting [7]) was greater than 100 µM; in the data set on M-HeLa [1], 92 ± 7.9 µM; in the data set on HuTu 80 [2] it was greater than 100 µM; with PANC-1 [3] it was greater than 100 µM.

For the compound `CCOC(=O)c1csc(N)n1` [Compound 2c], the IC50 in “in vitro” (setting [7]) is 95.4 ± 8.7 µM; in the data set with M-HeLa [1], 63.3 ± 5.7 µM; with HuTu 80 [2], greater than 100 µM; in the data set on PANC-1 [3], greater than 100 µM.

For the compound `Cc1cnc(Nc2ccccc2)s1` [Compound 2e], the IC50 in the data set “in vitro” (setting [7]) is greater than 100 µM; with M-HeLa [1], 92 ± 8.2 µM; in the data set with HuTu 80 [2] it was greater than 100 µM; in the data set on PANC-1 [3], greater than 100 µM.

For `COc1ccc(Nc2nccs2)cc1` [Compound 2f], the IC50 in the data set “in vitro” (setting [7]) was greater than 100 µM; with M-HeLa [1], 93.8 ± 8.4 µM; in the data set on HuTu 80 [2], greater than 100 µM; in the data set with PANC-1 [3], greater than 100 µM.

For the compound `O=[N+]([O-])c1cc([N+](=O)[O-])c2no[n+]([O-])c2c1Nc1nccs1` [Compound 3a, 4,6-dinitro-7-(thiazol-2-ylamino)benzo[c][1,2,5]oxadiazole 1-oxide], the “Cytotoxicity in words, M-HeLa” value in the data set on M-HeLa [4] is given as “moderate cytotoxicity”. Besides, the IC50 is 61 ± 5.4 µM in the data set on M-HeLa [4], greater than 100 µM with HuTu 80 [5], greater than 100 µM with PANC-1 [6] and greater than 100 µM in the data set “in vitro”. The “Toxicity in words, normal cells (Chang Liver)” value (shortened to “Toxicity in words, normal cells”) with Chang Liver was “not toxic”.

In the case of `Cc1cnc(Nc2c([N+](=O)[O-])cc([N+](=O)[O-])c3no[n+]([O-])c23)s1` [Compound 3b, 7-(5-methylthiazol-2-ylamino)-4,6-dinitrobenzo[c][1,2,5]oxadiazole 1-oxide], the IC50 in the data set with M-HeLa [4] is 70 ± 6.2 µM; with HuTu 80 [5], greater than 100 µM; in the data set with PANC-1 [6], greater than 100 µM; in the data set “in vitro”, greater than 100 µM.

As for `CCOC(=O)c1cnc(Nc2c([N+](=O)[O-])cc([N+](=O)[O-])c3no[n+]([O-])c23)s1` [Compound 3c, 7-(5-(ethoxycarbonyl)thiazol-2-ylamino)-4,6-dinitrobenzo[c][1,2,5]oxadiazole 1-oxide], the IC50 in the data set with M-HeLa [4] was 95.8 ± 8.4 µM; in the data set on HuTu 80 [5] it was greater than 100 µM; in the data set with PANC-1 [6] it was greater than 100 µM; in the data set “in vitro” it was 100 ± 9.4 µM.

For `O=[N+]([O-])c1cc([N+](=O)[O-])c2no[n+]([O-])c2c1N(c1ccccc1)c1nccs1` [Compound 3d, 4,6-dinitro-7-(phenyl(thiazol-2-yl)amino)benzo[c][1,2,5]oxadiazole 1-oxide], in the data set with M-HeLa [4], the “Cytotoxicity in words, M-HeLa” value is on record as “moderate cytotoxicity”. The IC50 in the data set with M-HeLa [4] was 61 ± 5.6 µM; in the data set with HuTu 80 [5] it was greater than 100 µM; in the data set with PANC-1 [6] it was greater than 100 µM; in the data set “in vitro” it was 86.1 ± 7.8 µM. Moreover, the “Toxicity in words, normal cells” value in the data set with Chang Liver was “not toxic”.

Consider `Cc1cnc(N(c2ccccc2)c2c([N+](=O)[O-])cc([N+](=O)[O-])c3no[n+]([O-])c23)s1` [Compound 3e, 7-((5-methylthiazol-2-yl)(phenyl)amino)-4,6-dinitrobenzo[c][1,2,5]oxadiazole 1-oxide], for which the IC50 with M-HeLa [4] was 79 ± 6.3 µM; with HuTu 80 [5], greater than 100 µM; in the data set on PANC-1 [6], greater than 100 µM; in the data set “in vitro” it was 85.8 ± 7.4 µM.

For `COc1ccc(N(c2nccs2)c2c([N+](=O)[O-])cc([N+](=O)[O-])c3no[n+]([O-])c23)cc1` [Compound 3f, 7-((4-methoxyphenyl)(thiazol-2-yl)amino)-4,6-dinitrobenzo[c][1,2,5]oxadiazole 1-oxide], the “Early apoptotic cells (Ea)” value with M-HeLa cells (50 µM) is reported as 10.73%; with M-HeLa cells (100 µM) it was 17.29%. Moreover, the results for the “Cells in G1 phase” value with M-HeLa cell lines (50 µM) and in the data set with M-HeLa cell lines (100 µM) were 81.4% and 83.8%, respectively. The “Cytotoxicity in words, M-HeLa” value in the data set on M-HeLa [4] is given as “moderate cytotoxicity”. Moreover, the IC50 with M-HeLa [4] was 56.6 ± 4.7 µM; with HuTu 80 [5] it was greater than 100 µM; in the data set with PANC-1 [6], greater than 100 µM; in “in vitro”, greater than 100 µM. Moreover, the “Toxicity in words, normal cells” value in the data set with Chang Liver is listed as “not toxic”.
